Test results from patent US20250186461A1, “METHODS AND COMPOSITIONS FOR TREATING AND/OR PREVENTING HERNIAS” (Northwestern University, priority 2023, published 2025).

Assays:
WT mice = assay: E2/P4-induced hernia formation in WT mice; format: in vivo, mouse; conditions: WT male mice, concurrent treatment with P4+E2
Excerpt: All placebo-treated Arom^hum mice developed hernias starting from 5 weeks of age. None of the WT littermates developed hernias. […] The mouse scrotum is connected to the peritoneal cavity with a narrow funicular (or inguinal) canal, with walls composed of LAM tissue. Structurally normal LAM tissue is essential to maintain the tone of this canal and prevent herniation of the bowel.
Experiment 1a1: Does the addition of P4 to E2 treatment accelerate LAM fibrosis and hernia formation in WT mice? It was shown that treatment of male WT mice with extremely high doses of systemic estrogens starting around or after the onset of puberty caused inguinal hernia in one third to half of these animals^23-25. We hypothesize that this effect is primarily mediated by the E2 induction of PGR expression in LAM fibroblasts. Male mice have readily detectable P4 levels in the circulation and LAM tissue to activate PGR in LAM fibroblasts (FIG. 6). If this were true, the addition of pharmacologic quantities of P4 (75 mg/pellet for 12-week release)^73 to E2 (0.3 mg/pellet for 12-week release)^23-25 in WT mice should accelerate this phenotype. Our ongoing preliminary study, whereby a 6-week treatment with P4+E2 induced large inguinal hernia in all WT mice (FIG. 7A), supports the following experiment. Long-term (8 weeks or longer) treatment with E2 only is anticipated to cause hernias in up to half of WT mice based on previous findings^23-25. We will determine whether P4+E2 treatment over 12 weeks will give rise to larger hernias in a higher number of mice compared with E2-only treatment. […] See Statistical Methods above for sample size calculation. Hernia surface area will be measured using a digital caliper and calculated as previously described (length×width)^19. At the designated endpoints, LAM and UAM (control) from each mouse will be resected, with one-half of the tissue snap-frozen in liquid nitrogen, and the other half fixed in 4% phosphate-buffered paraformaldehyde for histological and IHC analyses (see below). […]

aromatase enzyme = target: T1, aromatase enzyme (Homo sapiens, UniProt P11511); conditions: cited from earlier work
T1 sequence (P11511 1-503): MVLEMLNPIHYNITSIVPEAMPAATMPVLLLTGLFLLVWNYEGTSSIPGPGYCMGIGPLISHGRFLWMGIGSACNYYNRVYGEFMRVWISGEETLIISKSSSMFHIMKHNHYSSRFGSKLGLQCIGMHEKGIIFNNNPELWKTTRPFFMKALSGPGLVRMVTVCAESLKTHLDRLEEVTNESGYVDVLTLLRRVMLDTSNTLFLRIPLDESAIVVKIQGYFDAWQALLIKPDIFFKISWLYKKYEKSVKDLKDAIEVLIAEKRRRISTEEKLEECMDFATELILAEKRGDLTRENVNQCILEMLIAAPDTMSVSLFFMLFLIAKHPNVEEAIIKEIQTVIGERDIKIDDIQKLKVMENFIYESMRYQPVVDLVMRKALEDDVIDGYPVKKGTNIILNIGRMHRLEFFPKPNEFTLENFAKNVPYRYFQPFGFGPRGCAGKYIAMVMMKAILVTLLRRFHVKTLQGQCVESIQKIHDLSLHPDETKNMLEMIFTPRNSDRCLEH

PGR = target: T2, PGR (Homo sapiens, UniProt P06401); conditions: cited from earlier work
T2 sequence (P06401 1-933): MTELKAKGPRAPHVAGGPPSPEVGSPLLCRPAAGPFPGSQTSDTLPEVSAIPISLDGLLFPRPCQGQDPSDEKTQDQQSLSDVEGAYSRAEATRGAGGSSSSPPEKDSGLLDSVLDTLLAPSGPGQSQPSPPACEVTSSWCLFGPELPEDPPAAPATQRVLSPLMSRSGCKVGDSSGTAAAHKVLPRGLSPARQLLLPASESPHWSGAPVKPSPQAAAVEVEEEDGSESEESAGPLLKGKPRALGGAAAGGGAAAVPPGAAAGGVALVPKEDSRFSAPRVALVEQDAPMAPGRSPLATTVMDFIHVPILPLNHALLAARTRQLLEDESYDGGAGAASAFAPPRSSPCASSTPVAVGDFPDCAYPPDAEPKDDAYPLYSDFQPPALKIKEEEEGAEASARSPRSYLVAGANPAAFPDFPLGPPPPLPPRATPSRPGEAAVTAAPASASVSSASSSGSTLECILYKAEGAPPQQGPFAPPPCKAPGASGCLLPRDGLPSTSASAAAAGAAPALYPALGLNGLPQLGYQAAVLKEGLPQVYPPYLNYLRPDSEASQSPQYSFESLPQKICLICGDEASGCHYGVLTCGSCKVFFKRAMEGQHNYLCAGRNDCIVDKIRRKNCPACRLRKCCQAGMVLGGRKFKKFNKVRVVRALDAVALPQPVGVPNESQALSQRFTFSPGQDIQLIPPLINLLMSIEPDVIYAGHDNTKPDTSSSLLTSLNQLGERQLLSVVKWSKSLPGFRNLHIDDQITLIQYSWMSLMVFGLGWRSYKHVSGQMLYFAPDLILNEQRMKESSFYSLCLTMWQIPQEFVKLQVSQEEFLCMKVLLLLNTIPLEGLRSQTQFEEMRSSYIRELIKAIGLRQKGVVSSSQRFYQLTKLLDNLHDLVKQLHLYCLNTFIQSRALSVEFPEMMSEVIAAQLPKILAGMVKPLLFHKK

| SMILES | prevention of P4+E2-induced large hernias (WT mice) | inhibition of aromatase enzyme activity (aromatase enzyme) | P4/PGR antagonism and PGR selectivity (PGR) |
| --- | --- | --- | --- |
| CC#C[C@]1(O)CC[C@H]2[C@@H]3CCC4=CC(=O)CCC4=C3[C@@H](c3ccc(N(C)C)cc3)C[C@@]21C [RU486, Mifepristone] | completely prevented | does not inhibit aromatase enzyme activity | – |
| CC(=O)O[C@]1(C(C)=O)CC[C@H]2[C@@H]3CCC4=CC(=O)CCC4=C3[C@@H](c3ccc(N(C)C)cc3)C[C@@]21C [UPA, Ulipristal acetate] | – | does not inhibit aromatase enzyme activity | very high PGR selectivity |
